Assay [1] deals with T1, C-X-C chemokine receptor type 1 (Homo sapiens, UniProt P25024).
T1 sequence (P25024 whole entry): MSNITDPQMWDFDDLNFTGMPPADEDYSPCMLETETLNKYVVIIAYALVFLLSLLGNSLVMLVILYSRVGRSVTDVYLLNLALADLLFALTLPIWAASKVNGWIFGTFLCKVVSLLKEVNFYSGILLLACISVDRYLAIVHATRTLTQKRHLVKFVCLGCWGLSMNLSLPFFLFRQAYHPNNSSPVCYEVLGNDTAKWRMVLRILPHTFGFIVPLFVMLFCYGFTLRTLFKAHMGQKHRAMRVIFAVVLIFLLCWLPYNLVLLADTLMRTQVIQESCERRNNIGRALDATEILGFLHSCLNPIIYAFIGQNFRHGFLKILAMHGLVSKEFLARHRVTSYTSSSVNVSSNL
Kind of assay: (§1) Assay Drug Dev Technol. 2007 February; 5(1); 137-44). The assay is classed as cell-based.

Assay [2] addresses T2, C-X-C chemokine receptor type 2 (Homo sapiens, UniProt P25025).
T2 sequence (P25025 whole entry): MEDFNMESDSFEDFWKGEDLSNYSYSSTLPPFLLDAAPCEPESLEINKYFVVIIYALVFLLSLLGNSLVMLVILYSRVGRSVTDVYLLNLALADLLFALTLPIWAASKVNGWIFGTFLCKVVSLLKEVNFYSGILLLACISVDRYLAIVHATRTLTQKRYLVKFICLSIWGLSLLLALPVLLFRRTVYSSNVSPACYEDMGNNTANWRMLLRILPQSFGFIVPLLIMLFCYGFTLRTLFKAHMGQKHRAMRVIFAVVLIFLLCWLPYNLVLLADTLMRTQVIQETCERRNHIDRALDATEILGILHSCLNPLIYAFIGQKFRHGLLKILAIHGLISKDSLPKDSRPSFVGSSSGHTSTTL
Described as §1. Type of assay: cell-based.

Regarding `Cc1ccc([C@H](Nc2c(Nc3csc(C(=O)N(C)C)c3O)c(=O)c2=O)C2(C)COC2)o1`, the IC50 turned out to be 3900 nM in assay [1] and 96 nM in assay [2].

Take `Cc1ccc(C(Nc2c(Nc3cccc(C(=O)N(C)C)c3O)c(=O)c2=O)C2(C)COC2)s1` (stereo unspecified): the IC50 in assay [1] came out at 3030 nM; in assay [2], 146 nM.

Turning to `Cc1ccc([C@H](Nc2c(Nc3cccc(C(=O)N(C)C)c3O)c(=O)c2=O)C2(C)COC2)o1`, the IC50 came out at 312 nM in assay [1] and 72 nM in assay [2].

The values above are taken from ChEMBL document CHEMBL3638995, “Disubstituted 3,4-diamino-3-cyclobutene-1,2-dione compounds for use in the treatment of chemokine-mediated pathologies” (2015).
